# System: BT-474
# Test: normalised response (% of control), CellTox Green; higher = less cell death (100 = DMSO, 0 = benzethonium chloride kill control)
# Details: incubation time: 72 h
# In short: (§1)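 Each value is the plate-normalised signal at one concentration of the series. Breast cancer cell lines (20 µl suspension) were incubated 72 h in 384-well plates with compound at 5 concentrations in 10-fold steps over a compound-specific 10,000-fold range. CellTox Green and then CellTiter-Glo were read, and each plate was scaled to 0.1 % DMSO (100) and a positive kill control (0).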
row,SMILES,normalised response [%]
1,COc1cc2c(NC3CCN(C(C)C)CC3)nc(C3CCCCC3)nc2cc1OCCCN1CCCC1 [UNC0638] (1000 nM),91.6
2,CCc1cncnc1N1CCN(Cc2nc3ccc(C(F)(F)F)cc3[nH]2)CC1 (1000 nM),102
3,COc1cc2c(Oc3ccc4[nH]c(C)cc4c3F)ncnc2cc1OCCCN1CCCC1 [Cediranib] (100 nM),104
4,CC[C@@H]1C(=O)N(C)c2cnc(Nc3ccc(C(=O)NC4CCN(C)CC4)cc3OC)nc2N1C1CCCC1 [BI 2536] (100 nM),100
5,O=C(O)CCCCC(CCSCc1ccccc1)SCc1ccccc1 (stereo not drawn) [CPI-613] (1000 nM),98.6
6,Nc1ncn([C@H]2C[C@H](O)[C@@H](CO)O2)c(=O)n1 [Decitabine] (1000 nM),98.6

# System: BT-549
# Test: as above
# Details: incubation time: 72 h
# In short: as §1
row,SMILES,normalised response [%]
1,COc1cc2c(NC3CCN(C(C)C)CC3)nc(C3CCCCC3)nc2cc1OCCCN1CCCC1 [UNC0638] (1000 nM),81.2
2,CCc1cncnc1N1CCN(Cc2nc3ccc(C(F)(F)F)cc3[nH]2)CC1 (1000 nM),109
3,COc1cc2c(Oc3ccc4[nH]c(C)cc4c3F)ncnc2cc1OCCCN1CCCC1 [Cediranib] (100 nM),126
4,CC[C@@H]1C(=O)N(C)c2cnc(Nc3ccc(C(=O)NC4CCN(C)CC4)cc3OC)nc2N1C1CCCC1 [BI 2536] (100 nM),93
5,O=C(O)CCCCC(CCSCc1ccccc1)SCc1ccccc1 (stereo not drawn) [CPI-613] (1000 nM),92.6
6,Nc1ncn([C@H]2C[C@H](O)[C@@H](CO)O2)c(=O)n1 [Decitabine] (1000 nM),116

# System: CAL-120
# Test: as above
# Details: incubation time: 72 h
# In short: as §1
row,SMILES,normalised response [%]
1,COc1cc2c(NC3CCN(C(C)C)CC3)nc(C3CCCCC3)nc2cc1OCCCN1CCCC1 [UNC0638] (1000 nM),100
2,CCc1cncnc1N1CCN(Cc2nc3ccc(C(F)(F)F)cc3[nH]2)CC1 (1000 nM),98.6
3,COc1cc2c(Oc3ccc4[nH]c(C)cc4c3F)ncnc2cc1OCCCN1CCCC1 [Cediranib] (100 nM),96.8
4,CC[C@@H]1C(=O)N(C)c2cnc(Nc3ccc(C(=O)NC4CCN(C)CC4)cc3OC)nc2N1C1CCCC1 [BI 2536] (100 nM),87.1
5,O=C(O)CCCCC(CCSCc1ccccc1)SCc1ccccc1 (stereo not drawn) [CPI-613] (1000 nM),102
6,Nc1ncn([C@H]2C[C@H](O)[C@@H](CO)O2)c(=O)n1 [Decitabine] (1000 nM),93.6

# System: CAL-148
# Test: as above
# Details: incubation time: 72 h
# In short: as §1
row,SMILES,normalised response [%]
1,COc1cc2c(NC3CCN(C(C)C)CC3)nc(C3CCCCC3)nc2cc1OCCCN1CCCC1 [UNC0638] (1000 nM),93
2,CCc1cncnc1N1CCN(Cc2nc3ccc(C(F)(F)F)cc3[nH]2)CC1 (1000 nM),100
3,COc1cc2c(Oc3ccc4[nH]c(C)cc4c3F)ncnc2cc1OCCCN1CCCC1 [Cediranib] (100 nM),106
4,CC[C@@H]1C(=O)N(C)c2cnc(Nc3ccc(C(=O)NC4CCN(C)CC4)cc3OC)nc2N1C1CCCC1 [BI 2536] (100 nM),97.7
5,O=C(O)CCCCC(CCSCc1ccccc1)SCc1ccccc1 (stereo not drawn) [CPI-613] (1000 nM),94.6
6,Nc1ncn([C@H]2C[C@H](O)[C@@H](CO)O2)c(=O)n1 [Decitabine] (1000 nM),103

# System: CAL-51
# Test: as above
# Details: incubation time: 72 h
# In short: as §1
row,SMILES,normalised response [%]
1,COc1cc2c(NC3CCN(C(C)C)CC3)nc(C3CCCCC3)nc2cc1OCCCN1CCCC1 [UNC0638] (1000 nM),78.5
2,CCc1cncnc1N1CCN(Cc2nc3ccc(C(F)(F)F)cc3[nH]2)CC1 (1000 nM),97
3,COc1cc2c(Oc3ccc4[nH]c(C)cc4c3F)ncnc2cc1OCCCN1CCCC1 [Cediranib] (100 nM),109
4,CC[C@@H]1C(=O)N(C)c2cnc(Nc3ccc(C(=O)NC4CCN(C)CC4)cc3OC)nc2N1C1CCCC1 [BI 2536] (100 nM),49.6
5,O=C(O)CCCCC(CCSCc1ccccc1)SCc1ccccc1 (stereo not drawn) [CPI-613] (1000 nM),111
6,Nc1ncn([C@H]2C[C@H](O)[C@@H](CO)O2)c(=O)n1 [Decitabine] (1000 nM),77.8

# System: CAL-85-1
# Test: as above
# Details: incubation time: 72 h
# In short: as §1
row,SMILES,normalised response [%]
1,COc1cc2c(NC3CCN(C(C)C)CC3)nc(C3CCCCC3)nc2cc1OCCCN1CCCC1 [UNC0638] (1000 nM),94.4
2,CCc1cncnc1N1CCN(Cc2nc3ccc(C(F)(F)F)cc3[nH]2)CC1 (1000 nM),106
3,COc1cc2c(Oc3ccc4[nH]c(C)cc4c3F)ncnc2cc1OCCCN1CCCC1 [Cediranib] (100 nM),91.2
4,CC[C@@H]1C(=O)N(C)c2cnc(Nc3ccc(C(=O)NC4CCN(C)CC4)cc3OC)nc2N1C1CCCC1 [BI 2536] (100 nM),71.5
5,O=C(O)CCCCC(CCSCc1ccccc1)SCc1ccccc1 (stereo not drawn) [CPI-613] (1000 nM),96.8
6,Nc1ncn([C@H]2C[C@H](O)[C@@H](CO)O2)c(=O)n1 [Decitabine] (1000 nM),89.9

# System: DU-4475
# Test: as above
# Details: incubation time: 72 h
# In short: as §1
row,SMILES,normalised response [%]
1,COc1cc2c(NC3CCN(C(C)C)CC3)nc(C3CCCCC3)nc2cc1OCCCN1CCCC1 [UNC0638] (1000 nM),91.6
2,CCc1cncnc1N1CCN(Cc2nc3ccc(C(F)(F)F)cc3[nH]2)CC1 (1000 nM),104
3,COc1cc2c(Oc3ccc4[nH]c(C)cc4c3F)ncnc2cc1OCCCN1CCCC1 [Cediranib] (100 nM),98.4
4,CC[C@@H]1C(=O)N(C)c2cnc(Nc3ccc(C(=O)NC4CCN(C)CC4)cc3OC)nc2N1C1CCCC1 [BI 2536] (100 nM),98.5
5,O=C(O)CCCCC(CCSCc1ccccc1)SCc1ccccc1 (stereo not drawn) [CPI-613] (1000 nM),100
6,Nc1ncn([C@H]2C[C@H](O)[C@@H](CO)O2)c(=O)n1 [Decitabine] (1000 nM),97.4

# System: HCC1143
# Test: as above
# Details: incubation time: 72 h
# In short: as §1
row,SMILES,normalised response [%]
1,CCc1cncnc1N1CCN(Cc2nc3ccc(C(F)(F)F)cc3[nH]2)CC1 (1000 nM),79.2
2,COc1cc2c(Oc3ccc4[nH]c(C)cc4c3F)ncnc2cc1OCCCN1CCCC1 [Cediranib] (100 nM),112
3,CC[C@@H]1C(=O)N(C)c2cnc(Nc3ccc(C(=O)NC4CCN(C)CC4)cc3OC)nc2N1C1CCCC1 [BI 2536] (100 nM),79.2
4,O=C(O)CCCCC(CCSCc1ccccc1)SCc1ccccc1 (stereo not drawn) [CPI-613] (1000 nM),58.7
5,Nc1ncn([C@H]2C[C@H](O)[C@@H](CO)O2)c(=O)n1 [Decitabine] (1000 nM),80.5

# System: HCC1599
# Test: as above
# Details: incubation time: 72 h
# In short: as §1
row,SMILES,normalised response [%]
1,COc1cc2c(NC3CCN(C(C)C)CC3)nc(C3CCCCC3)nc2cc1OCCCN1CCCC1 [UNC0638] (1000 nM),89.1
2,CCc1cncnc1N1CCN(Cc2nc3ccc(C(F)(F)F)cc3[nH]2)CC1 (1000 nM),97.5
3,COc1cc2c(Oc3ccc4[nH]c(C)cc4c3F)ncnc2cc1OCCCN1CCCC1 [Cediranib] (100 nM),102
4,CC[C@@H]1C(=O)N(C)c2cnc(Nc3ccc(C(=O)NC4CCN(C)CC4)cc3OC)nc2N1C1CCCC1 [BI 2536] (100 nM),91.7
5,O=C(O)CCCCC(CCSCc1ccccc1)SCc1ccccc1 (stereo not drawn) [CPI-613] (1000 nM),95.5
6,Nc1ncn([C@H]2C[C@H](O)[C@@H](CO)O2)c(=O)n1 [Decitabine] (1000 nM),101

# — the supplement of paper PMC4862054
